Test results taken from patent publication US11000033B2, “Ketone or oxime compound, and herbicide” (NISSAN CHEMICAL CORPORATION, priority 2014, dated 2021).

Experiments:
Assay type in all cases: in vivo
Digitaria ciliaris = experiment: Test Example 4: herbicidal effect by soil treatment (symbol F); conditions: application herbicide amount 320 g/ha
In short: (§1)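 Seeds were sown in sterilized diluvial soil, covered with about 1.5 cm of soil, and the soil surface was sprayed with a water-diluted emulsion of the compound at a predetermined rate. Plants grew in a greenhouse at 25° C. to 30° C.; effects were scored visually 3 weeks after application.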

Monochoria vaginalis [1] = experiment: Test Example 2: herbicidal activity, application during weed generation in submerged conditions (symbol C); conditions: Table 23; application herbicide amount 320 g/ha; grade 0-5 by criteria of Test Example 1
In short: (§2)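 Each pot contained alluvial soil under 4 cm of water with seeds of all three weeds sown together. Following growth at 25° C. to 30° C. to the one- to two-leaf stage, the floodwater received diluted emulsion at a predetermined amount; visual assessment followed at 3 weeks.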

Scirpus juncoides [2] = experiment: Test Example 1: herbicidal activity, application before weed generation in submerged conditions (symbol B); conditions: application herbicide amount 320 g/ha
In short: (§3)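 Paddy pre-emergence test. Formulated emulsion, water-diluted to a predetermined rate, is applied to floodwater on sowing day; rice transplanted at 2.5 leaves. Effect read at 3 weeks on a 0–5 herbicidal-ratio scale.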

Apera spica-venti [3] = experiment: Test Example 4: herbicidal effect by soil treatment (symbol L); conditions: application herbicide amount 320 g/ha
In short: as §1

Scirpus juncoides [4] = experiment: Test Example 2: herbicidal activity, application during weed generation in submerged conditions (symbol B); conditions: Table 23; application herbicide amount 320 g/ha; grade 0-5 by criteria of Test Example 1
In short: as §2

Amaranthus retroflexus = experiment: Test Example 5: herbicidal effect by foliage application, plastic box (symbol N); conditions: 320 g/ha, 3 weeks after application
In short: (§4)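 Sowing in sterilized diluvial soil, 14 days' greenhouse growth at 25° C. to 30° C., then uniform small-sprayer foliar application of aqueous emulsion dilution; plants scored three weeks afterwards.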

rapeseed [5] = experiment: Test Example 4: effect on crop by soil treatment (symbol g); conditions: application herbicide amount 320 g/ha
In short: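 Seeds were sown in spots on sterilized diluvial soil in a plastic box and covered with about 1.5 cm of soil. Plants were then grown in a greenhouse at 25° C. to 30° C.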

rapeseed [6] = experiment: Test Example 5: effect on crop by foliage application, plastic box (symbol g); conditions: 320 g/ha, 3 weeks after application
In short: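 A greenhouse held between 25° C. and 30° C. was used to grow plants sown spot-wise, beneath ~1.5 cm of soil, in boxes of sterilized diluvial soil.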

[7] = system: Echinochloa crus-galli var. crus-galli; experiment: Test Example 4: herbicidal effect by soil treatment (symbol H); conditions: application herbicide amount 320 g/ha
In short: as §1

Lolium multiflorum Lam. = experiment: Test Example 5: herbicidal effect by foliage application, plastic box (symbol K); conditions: 320 g/ha, 3 weeks after application
In short: as §4

Apera spica-venti [8] = experiment: Test Example 5: herbicidal effect by foliage application, plastic box (symbol L); conditions: 320 g/ha, 3 weeks after application
In short: as §4

Setaria viridis = experiment: Test Example 5: herbicidal effect by foliage application, plastic box (symbol G); conditions: 320 g/ha, 3 weeks after application
In short: as §4

Monochoria vaginalis [9] = experiment: Test Example 1: herbicidal activity, application before weed generation in submerged conditions (symbol C); conditions: application herbicide amount 320 g/ha
In short: as §3

Veronica persica = experiment: Test Example 5: herbicidal effect by foliage application, plastic box (symbol R); conditions: 320 g/ha, 3 weeks after application
In short: as §4

Row | Structure (SMILES) | Herbicidal effect grade, F: Digitaria ciliaris (Digitaria ciliaris) | Herbicidal effect grade, C: Monochoria vaginalis (Monochoria vaginalis [1]) | Herbicidal effect grade, B: Scirpus juncoides (Scirpus juncoides [2]) | Herbicidal effect grade, L: Apera spica-venti (Apera spica-venti [3]) | Herbicidal effect grade, B: Scirpus juncoides (Scirpus juncoides [4]) | N: Amaranthus retroflexus, herbicidal effect (criteria of Test Example 1) (Amaranthus retroflexus) | Effect on crop grade, g: rapeseed (rapeseed [5]) | g: rapeseed, effect on crop (criteria of Test Example 1) (rapeseed [6]) | Herbicidal effect grade, H: Echinochloa crus-galli var. crus-galli [7] | K: Lolium multiflorum Lam., herbicidal effect (criteria of Test Example 1) (Lolium multiflorum Lam.) | L: Apera spica-venti, herbicidal effect (criteria of Test Example 1) (Apera spica-venti [8]) | G: Setaria viridis, herbicidal effect (criteria of Test Example 1) (Setaria viridis) | Herbicidal effect grade, C: Monochoria vaginalis (Monochoria vaginalis [9]) | R: Veronica persica, herbicidal effect (criteria of Test Example 1) (Veronica persica) | other results
1 | CC(=O)CC1CC(O)=C(c2c(C)cc(-c3ccccc3)cc2C)C1=O (stereo not shown) [7-004] | 5 (Herbicidal ratio of 90% or more (almost completely withered)) | 0 (Herbicidal ratio of 5% or lower (almost no effect)) | 3 (Herbicidal ratio of 40% or higher and lower than 70%) | 5 (Herbicidal ratio of 90% or more (almost completely withered)) | 0 (Herbicidal ratio of 5% or lower (almost no effect)) | 0 (Herbicidal ratio of 5% or lower (almost no effect)) | 3 (Herbicidal ratio of 40% or higher and lower than 70%) | 3 (Herbicidal ratio of 40% or higher and lower than 70%) | 5 (Herbicidal ratio of 90% or more (almost completely withered)) | 5 (Herbicidal ratio of 90% or more (almost completely withered)) | 5 (Herbicidal ratio of 90% or more (almost completely withered)) | 4 (Herbicidal ratio of 70% or higher and lower than 90%) | 0 (Herbicidal ratio of 5% or lower (almost no effect)) | – | –
2 | CCc1cc(-c2ccc(Cl)cc2)cc(C)c1C1=C(O)CC(CC(C)=NOC)C1=O (stereo not shown) [6-066] | – | 0 (Herbicidal ratio of 5% or lower (almost no effect)) | 3 (Herbicidal ratio of 40% or higher and lower than 70%) | – | 0 (Herbicidal ratio of 5% or lower (almost no effect)) | 3 (Herbicidal ratio of 40% or higher and lower than 70%) | – | – | – | 5 (Herbicidal ratio of 90% or more (almost completely withered)) | 5 (Herbicidal ratio of 90% or more (almost completely withered)) | 5 (Herbicidal ratio of 90% or more (almost completely withered)) | 2 (Herbicidal ratio of 20% or higher and lower than 40%) | – | F: Digitaria ciliaris, herbicidal effect grade (Digitaria ciliaris): 5 (Herbicidal ratio of 90% or more (almost completely withered)); L: Apera spica-venti, herbicidal effect grade (Apera spica-venti [3]): 5 (Herbicidal ratio of 90% or more (almost completely withered)); g: rapeseed, effect on crop grade (rapeseed [5]): 2 (Herbicidal ratio of 20% or higher and lower than 40%); H: Echinochloa crus-galli var. crus-galli, herbicidal effect grade [7]: 5 (Herbicidal ratio of 90% or more (almost completely withered))
3 | CC(=O)CC1CC(O)=C(c2c(C)cc(Oc3ccc(C(F)(F)F)cn3)cc2C)C1=O (stereo not shown) [7-019] | 3 (Herbicidal ratio of 40% or higher and lower than 70%) | – | 0 (Herbicidal ratio of 5% or lower (almost no effect)) | 0 (Herbicidal ratio of 5% or lower (almost no effect)) | – | 0 (Herbicidal ratio of 5% or lower (almost no effect)) | 0 (Herbicidal ratio of 5% or lower (almost no effect)) | 2 (Herbicidal ratio of 20% or higher and lower than 40%) | 0 (Herbicidal ratio of 5% or lower (almost no effect)) | 3 (Herbicidal ratio of 40% or higher and lower than 70%) | 3 (Herbicidal ratio of 40% or higher and lower than 70%) | 3 (Herbicidal ratio of 40% or higher and lower than 70%) | 0 (Herbicidal ratio of 5% or lower (almost no effect)) | 0 (Herbicidal ratio of 5% or lower (almost no effect)) | –
4 | CC(CC1CC(O)=C(c2c(C)cc(C)cc2C)C1=O)=NOCc1ccccn1 (stereo not shown) [1-022] | – | 3 (Herbicidal ratio of 40% or higher and lower than 70%) | 5 (Herbicidal ratio of 90% or more (almost completely withered)) | – | 5 (Herbicidal ratio of 90% or more (almost completely withered)) | – | – | – | – | – | – | – | 2 (Herbicidal ratio of 20% or higher and lower than 40%) | – | F (Digitaria ciliaris) herbicidal effect grade (Digitaria ciliaris): 5 (Herbicidal ratio of 90% or more (almost completely withered)); L (Apera spica-venti) herbicidal effect grade (Apera spica-venti [3]): 5 (Herbicidal ratio of 90% or more (almost completely withered)); N: Amaranthus retroflexus, herbicidal effect grade (Amaranthus retroflexus): 1 (Herbicidal ratio of 5% or higher and lower than 20%); g: rapeseed, effect on crop grade (rapeseed [6]): 4 (Herbicidal ratio of 70% or higher and lower than 90%); R: Veronica persica, herbicidal effect grade (Veronica persica): 3 (Herbicidal ratio of 40% or higher and lower than 70%); H (Echinochloa crus-galli var. crus-galli) herbicidal effect grade [7]: 5 (Herbicidal ratio of 90% or more (almost completely withered)); K: Lolium multiflorum Lam., herbicidal effect grade (Lolium multiflorum Lam.): 5 (Herbicidal ratio of 90% or more (almost completely withered)); L: Apera spica-venti, herbicidal effect grade (Apera spica-venti [8]): 5 (Herbicidal ratio of 90% or more (almost completely withered)); G: Setaria viridis, herbicidal effect grade (Setaria viridis): 5 (Herbicidal ratio of 90% or more (almost completely withered))
5 | CON=C(C)CC1CC(OC(=O)N2CCCC2)=C(c2c(C)cc(C)cc2OC)C1=O (stereo not shown) [6-110] | 0 (Herbicidal ratio of 5% or lower (almost no effect)) | 0 (Herbicidal ratio of 5% or lower (almost no effect)) | 3 (Herbicidal ratio of 40% or higher and lower than 70%) | – | 1 (Herbicidal ratio of 5% or higher and lower than 20%) | 0 (Herbicidal ratio of 5% or lower (almost no effect)) | 0 (Herbicidal ratio of 5% or lower (almost no effect)) | 4 (Herbicidal ratio of 70% or higher and lower than 90%) | 5 (Herbicidal ratio of 90% or more (almost completely withered)) | 5 (Herbicidal ratio of 90% or more (almost completely withered)) | 5 (Herbicidal ratio of 90% or more (almost completely withered)) | 5 (Herbicidal ratio of 90% or more (almost completely withered)) | 0 (Herbicidal ratio of 5% or lower (almost no effect)) | 2 (Herbicidal ratio of 20% or higher and lower than 40%) | –
6 | CON=C(C)CC1CC(O)=C(c2c(C)cc(-c3cc(Cl)cc(Cl)c3)cc2C)C1=O (stereo not shown) [6-087] | 5 (Herbicidal ratio of 90% or more (almost completely withered)) | 0 (Herbicidal ratio of 5% or lower (almost no effect)) | 0 (Herbicidal ratio of 5% or lower (almost no effect)) | – | 0 (Herbicidal ratio of 5% or lower (almost no effect)) | 0 (Herbicidal ratio of 5% or lower (almost no effect)) | 1 (Herbicidal ratio of 5% or higher and lower than 20%) | 4 (Herbicidal ratio of 70% or higher and lower than 90%) | 5 (Herbicidal ratio of 90% or more (almost completely withered)) | 4 (Herbicidal ratio of 70% or higher and lower than 90%) | 3 (Herbicidal ratio of 40% or higher and lower than 70%) | 5 (Herbicidal ratio of 90% or more (almost completely withered)) | 0 (Herbicidal ratio of 5% or lower (almost no effect)) | 4 (Herbicidal ratio of 70% or higher and lower than 90%) | –
